Reference: patent publication US11485751B2, “Apramycin derivatives” (WAYNE STATE UNIVERSITY, priority 2017, dated 2022)
pIC50: −log10 of the molar value. Values after ≈ are worked out from the molar mass of the structure shown.

Assays:
[1] = test system: clinical isolates carrying AAC(3)-IV; test: MIC broth microdilution, AAC(3)-IV; format: cell-based
Summary of the method: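 Clinical isolates supplied by the Zurich Institute of Medical Microbiology were tested for MIC (μg/ml) using CLSI M07-A10 broth microdilution.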

[2] = test system: clinical isolates carrying APH(3′)-I; test: MIC broth microdilution, APH(3′)-I; format: cell-based; settings: IMM Univ. Zurich
[3] = test system: clinical isolates carrying APH(3′)-II; test: MIC broth microdilution, APH(3′)-II; format: cell-based; settings: clinical isolates, IMM Univ. Zurich; APH(3′)-II; read-out: MIC APH(3′)-II
[4] = test system: clinical isolates carrying APH(3′)-III; test: MIC broth microdilution, APH(3′)-III; format: cell-based; settings: IMM Univ. Zurich
Text: (§1) Minimal inhibitory concentrations (MIC) have been determined by broth microdilution assays (CLSI. Methods for Dilution Antimicrobial Susceptibility Tests for Bacteria That Grow Aerobically; Approved Standard—Tenth Edition. CLSI document M07-A10. Wayne, Pa.: Clinical and Laboratory Standards Institute; 2015.).
Minimal inhibitory concentrations (MICs, […]) against clinical isolates from Institute of Medical Microbiology, Univ. Zurich, and the IC50 values for bacterial, human mitochondrial and human cytosolic ribosomes are indicated.

[5] = test system: clinical isolates carrying APH(3′)-VI; test: MIC broth microdilution, APH(3′)-VI; format: cell-based; settings: IMM Univ. Zurich
bacterial ribosomes = test: in-vitro translation assay, bacterial ribosomes; format: biochemical
Summary of the method: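 Each ribosome preparation (bacterial, human chimeric as the mitochondrial model, rabbit reticulocyte as the cytosolic model) drives in-vitro translation with the test compound present. Inhibition of translation gives the IC50.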

[6] = test system: human mitochondrial ribosomes; test: in-vitro translation assay, human mitochondrial (human chimeric) ribosomes; format: biochemical
Summary of the method: (§2)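 Cell-free translation; IC50 read-out. Mito = human chimeric ribosomes; cytosolic = rabbit reticulocyte ribosomes; bacterial ribosomes run in the same assay format.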

[7] = test system: human cytosolic ribosomes; test: in-vitro translation assay, human cytosolic ribosomes; format: biochemical
Summary of the method: as §2

[8] = test system: AG212, Escherichia coli ATCC25922; test: MIC reference strain AG212; format: cell-based; settings: Escherichia coli; reference strain ATCC25922; read-out: MIC AG212 E. coli
Summary of the method: (§3)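 Compounds serially diluted in broth, bacteria added, growth inhibition scored; the lowest inhibitory concentration is taken as MIC, following CLSI procedures.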

[9] = test system: AG215, Klebsiella pneumonia; test: MIC reference strain AG215; format: cell-based; settings: Klebsiella pneumoniae, reference strain; read-out: MIC AG215 K. pneumonia
Summary of the method: as §3

[10] = test system: AG290, Enterobacter cloacae; test: MIC reference strain AG290; format: cell-based; settings: Enterobacter cloacae; reference strain; read-out: MIC AG290 E. cloacae
Summary of the method: as §3

[11] = test system: AG220, Pseudomonas aeruginosa ATCC27853; test: MIC reference strain AG220; format: cell-based; settings: Pseudomonas aeruginosa, ATCC27853, reference strain ATCC27853; read-out: MIC AG220 P. aeruginosa
Summary of the method: as §3

[12] = test system: AG225, Acinetobacter baumannii pittii; test: MIC reference strain AG225; format: cell-based; settings: Acinetobacter baumannii, reference strain; read-out: MIC AG225 A. baumannii
Summary of the method: as §3

ATCC19977 M. abcessus = test: MIC reference strain ATCC19977; format: cell-based; settings: read-out: MIC ATCC19977 M. abcessus
Summary of the method: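 Broth microdilution, CLSI dilution method for aerobic bacteria; read-out is minimal inhibitory concentration (MIC).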

AG001 E. coli WT = test: Antibacterial activity, clinical isolate AG001; format: cell-based; parameters: unit not given here
Summary of the method: (§4)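 Compounds are serially diluted in liquid medium in microplates, bacteria are added, and the lowest concentration preventing growth is recorded as the MIC (CLSI procedure).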

AG055 E. coli WT = test: Antibacterial activity, clinical isolate AG055; format: cell-based; parameters: unit not given here
Summary of the method: as §4

AG003 E. coli AAC(3)-II = test: Antibacterial activity, clinical isolate AG003; format: cell-based
Summary of the method: as §4

AG173 E. coli AAC(3)-IV = test: Antibacterial activity, clinical isolate AG173; format: cell-based
Summary of the method: as §4

AG163 E. coli APH(3′)-I = test: Antibacterial activity, clinical isolate AG163; format: cell-based
Summary of the method: as §4

AG038 MRSA = test: Antibacterial activity, clinical isolate AG038; format: cell-based; parameters: unit not given here
Summary of the method: as §4

[13] = test system: AG039 MRSA AAC(6′)-I ANT(4′)-I; test: Antibacterial activity, clinical isolate AG039; format: cell-based
Summary of the method: as §4

[14] = test system: AG042 MRSA AAC(6′)-I ANT(4′)-I APH(2′); test: Antibacterial activity, clinical isolate AG042; format: cell-based; parameters: unit not given here
Summary of the method: as §4

AG031 P. aer. APH(3′)-II = test: Antibacterial activity, clinical isolate AG031; format: cell-based; parameters: unit not given here
Summary of the method: as §4

AG032 P. aer. APH(3′)-II = test: Antibacterial activity, clinical isolate AG032; format: cell-based; parameters: unit not given here
Summary of the method: as §4

[15] = test system: AG033 P. aer. APH(3′)-II AAC(6′)-I; test: Antibacterial activity, clinical isolate AG033; format: cell-based; parameters: unit not given here
Summary of the method: as §4

[16] = test system: Engineered E. coli pH430 WT; test: Activity, engineered E. coli pH430 WT; format: cell-based; settings: wild type
Summary of the method: (§5)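 Broth microdilution per CLSI M07-A10; readout MIC.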

[17] = test system: Engineered E. coli AG103 armA; test: Activity against G1405-methylated 16S-rRNA, E. coli AG103 armA; format: cell-based
Summary of the method: as §5

[18] = test system: Engineered E. coli pH424 armA; test: Activity against G1405-methylated 16S-rRNA, E. coli pH424 armA; format: cell-based
Summary of the method: as §5

[19] = test system: Engineered E. coli pH425 rmtB; test: Activity against G1405-methylated 16S-rRNA, E. coli pH425 rmtB; format: cell-based
Summary of the method: as §5

[20] = test system: Engineered E. coli pH426 rmtC; test: Activity against G1405-methylated 16S-rRNA, E. coli pH426 rmtC; format: cell-based
Summary of the method: as §5

[21] = test system: Engineered E. coli pH427 rmtF; test: Activity against G1405-methylated 16S-rRNA, E. coli pH427 rmtF; format: cell-based
Summary of the method: as §5

[22] = test system: E. coli AG153 AAC(3)-II APH(3′)-II rmtB; test: Activity against G1405-methylated 16S-rRNA, clinical isolate AG153; format: cell-based
Summary of the method: as §5

[23] = test system: K. pneum. AG269 AAC(3)-II AAC(6′)-I rmtB; test: Activity against G1405-methylated 16S-rRNA, clinical isolate AG269; format: cell-based
Summary of the method: as §5

[24] = test system: Enterob. AG302 AAC(3)-II AAC(6′)-I rmtC; test: Activity against G1405-methylated 16S-rRNA, clinical isolate AG302; format: cell-based
Summary of the method: as §5

[25] = test system: A baum. AG227 APH(3′)-I armA; test: Activity against G1405-methylated 16S-rRNA, clinical isolate AG227; format: cell-based
Summary of the method: as §5

[26] = test system: APH(3′, 5″) resistance determinant; test: Susceptibility to the APH(3′, 5″) resistance determinant; format: cell-based
Text: as §1
The introduction of a formamido group results in compounds that display increased selectivity for the bacterial ribosome over the mitochondrial (wild type and A1555G mutant) ribosomes, predictive of reduced ototoxicity.

eukaryotic ribosomes = test: in-vitro translation assays, bacterial versus eukaryotic ribosomes; format: biochemical
Text: IC50 values for bacterial, human chimeric, and rabbit reticulocyte ribosomes have been determined by in-vitro translation assays as described previously (Proc. Nat. Ac. Sci USA 2012, 109(27):10984-10989).

CNC1C(OC2OC(CO)C(N)C(O)C2O)OC2CC(N)C(OC3C(N)CC(N)C(O)C3OC3OC(CO)C(OCCN)C3O)OC2C1O [DC124, 5-O-β-(3′″-O-(2-Aminoethyl)-D-ribofuranosyl) apramycin]
activity against the IMM clinical isolates carrying the gene for AAC(3)-IV [1]: excellent antiribosomal and antibacterial activity | MIC ([1]; clinical isolates, IMM Univ. Zurich, AAC(3)-IV, read-out: MIC AAC(3)-IV): > 32 µg/mL | MIC [2]: 64 µg/mL (≈ 89.5 µM) | MIC [3]: 2 µg/mL (≈ 2.8 µM) | MIC [4]: 0.5 µg/mL (≈ 0.7 µM) | MIC [5]: 4 µg/mL (≈ 5.6 µM) | pIC50 (bacterial ribosomes): 7.22 | pIC50 [6]: 4.24 | pIC50 [7]: 3.74 | MIC [8]: 2 µg/mL | MIC [9]: 1 to 2 µg/mL | MIC [10]: 1 to 2 µg/mL | MIC [11]: 16 to 32 µg/mL | MIC [12]: 8 µg/mL | MIC (ATCC19977 M. abcessus): 8 µg/mL (≈ 11.2 µM) | Antibacterial activity AG001 E. coli WT (AG001 E. coli WT): 8 | Antibacterial activity AG055 E. coli WT (AG055 E. coli WT): 8 | Antibacterial activity AG003 E. coli AAC(3)-II (AG003 E. coli AAC(3)-II): 4-8 | Antibacterial activity AG173 E. coli AAC(3)-IV (AG173 E. coli AAC(3)-IV): 4 | Antibacterial activity AG163 E. coli APH(3′)-I (AG163 E. coli APH(3′)-I): 4-8 | Antibacterial activity AG038 MRSA (AG038 MRSA): 8-16 | Antibacterial activity AG039 MRSA AAC(6′)-I ANT(4′)-I [13]: 8 | Antibacterial activity AG042 MRSA AAC(6′)-I ANT(4′)-I APH(2′) [14]: 8 | Antibacterial activity AG031 P. aer. APH(3′)-II (AG031 P. aer. APH(3′)-II): 32-64 | Antibacterial activity AG032 P. aer. APH(3′)-II (AG032 P. aer. APH(3′)-II): 32-64 | Antibacterial activity AG033 P. aer. APH(3′)-II AAC(6′)-I [15]: 128 | Activity E. coli pH430 WT [16]: 2 | Activity E. coli AG103 armA [17]: 0.5 | Activity E. coli pH424 armA [18]: 1 | Activity E. coli pH425 rmtB [19]: 4 | Activity E. coli pH426 rmtC [20]: 2 | Activity E. coli pH427 rmtF [21]: 2 | Activity E. coli AG153 AAC(3)-II APH(3′)-II rmtB [22]: 4 | Activity K. pneum. AG269 AAC(3)-II AAC(6′)-I rmtB [23]: 2 | Activity Enterob. AG302 AAC(3)-II AAC(6′)-I rmtC [24]: 4 | Activity A baum. AG227 APH(3′)-I armA [25]: 16 | susceptibility to the APH(3′, 5″) resistance determinant [26]: susceptible | activity against eukaryotic ribosomes (eukaryotic ribosomes): only low activity | selectivity at the target level (eukaryotic ribosomes; bacterial versus eukaryotic ribosomes): excellent selectivity
